This assay concerns DC. The experiment in a line: LPS induced IL-6 secretion from single dendritic cells in droplets. The class given is cell-based, mouse. As to conditions: single DC co-encapsulated with LPS; versus droplets with no LPS. An excerpt: FIG. 16A is a schematic illustration of […] carried out in a microdroplet.
The activation and monitoring of live single cells for secretion and cell surface markers have been measured simultaneously. In particular, droplet based technology can be applied to simultaneously stimulate mouse DC maturation with an immunological adjuvant, lipopolysaccharide (LPS), and to monitor two phenotypic markers of DCs. The maturation phenotype of the live DC was followed by measuring CD86 expression and IL-6 secretion. DC were co-encapsulated with LPS and bioassay reagents (microsphere sensors and antibodies). This method made it possible to distinguish the responses of individual cells to LPS stimulation in the confined volume of droplets. In addition to CD86, LPS induced IL-6 secretion could be monitored from the same encapsulated single DCs (FIG. 16B). The signal was detected in droplets after 10 min in the array.

Turning to lipopolysaccharide [LPS], the “IL-6 levels in droplets” value was “significantly higher”.

The values above are taken from patent US10802016B2, “Microdroplet based bioassay platform” (Northeastern University, priority 2015, dated 2020).
